Assay results reported in paper doi:10.1101/2025.05.17.654689v2 (biorxiv, 2025).

Test system: QgIspS1-like (ΔTP-QgIspS1-like-6×His)
Test: GC-MS
Assay type: biochemical, Quercus glauca
Conditions: 20 mM MgCl2, 37 °C, 30 min; from formation of the main product trans-β-ocimene

CC(C)=CCC/C(C)=C/COP(=O)(O)OP(=O)(O)O [GPP]
Km: 180 ± 40 µM
